Measured values reported in ChEMBL document CHEMBL1151305, “The biotransformation of some clovanes by botrytis cinerea” (J Nat Prod, 1998).
The source made the active and inactive calls. No cut-off for these calls is given here.

Tested on: Botrytis cinerea
Assay: Antifungal activity against Botrytis cinerea assessed as inhibition of radical growth by poisoned-food technique
Assay type: functional, organism-based

CO[C@H]1CC(C)(C)[C@@H]2CC[C@@]3(C)C[C@]12CC[C@H]3O
Activity: Active
